One data set relates to GH3-TRE-Luc cell line. To be noted: read-out: AC50 (uM) modified / 1000, viability, 1 nM T3 present, 24 h.
The next data set is described as follows: in vitro. Conditions: rat, gh3-tre-luc cells, AC50 (uM) modified / 1000.

Structures are written as SMILES. Structures can show the parent of a compound that is named as a salt. Where two headings read alike, the source gives them in different places. Some results are limits rather than exact numbers.

As for `CCCCCCCCCCCC[N+](C)(C)CCOc1ccccc1` [Domiphen bromide], in the data set with GH3-TRE-Luc cell line (Tox21_110001=Tox21_111054), the CC50 was determined as 12.4 µM. The molecule also displayed a CC50 at 24 h in “in vitro” of 10.6 µM.

As for `CCCCC/C=C/C=C/C=O` [(E,E)-2,4-Decadienal], the CC50 with GH3-TRE-Luc cell line (Tox21_110001=Tox21_303165) was determined as 70.3 µM. In addition, the CC50 at 24 h in the data set “in vitro” was > 90 µM.

Turning to `Cc1ccc(S(=O)(=O)Oc2ccc(N=Nc3ccc(-c4ccc(N=Nc5c(O)ccc6cc(S(=O)(=O)O)cc(S(=O)(=O)O)c56)c(C)c4)cc3C)cc2)cc1` [C.I. Acid Red 114], the CC50 in the data set on GH3-TRE-Luc cell line (Tox21_110001=Tox21_302977) was 17.5 µM. For the same molecule, in the data set “in vitro”, the CC50 at 24 h is 32.3 µM.

For the molecule `Nc1ccc(Cl)cc1N` [4-Chloro-1,2-diaminobenzene], the CC50 with GH3-TRE-Luc cell line (Tox21_110001=Tox21_400037) is > 90 µM. In the data set “in vitro”, this molecule registered a CC50 at 24 h of 73 µM.

On to `CCCCCCCCCCCCCC[P+](CCCC)(CCCC)CCCC` [Tributyltetradecylphosphonium chloride], for which the CC50 with GH3-TRE-Luc cell line (Tox21_110001=Tox21_303556) was 3.3 µM. The molecule also displayed a CC50 at 24 h in the data set “in vitro” of 2.96 µM.

As for `OCCOCCN1CCN(C(c2ccccc2)c2ccc(Cl)cc2)CC1` (centres unmarked) [Hydroxyzine], the CC50 with GH3-TRE-Luc cell line (Tox21_110001=Tox21_302563) amounted to 16.6 µM. In the data set “in vitro”, this molecule gave a CC50 at 24 h of 18.1 µM.

`CO/N=C1\C[C@]2(C[C@@H]3C[C@@H](C/C=C(\C)C[C@@H](C)/C=C/C=C4\CO[C@@H]5[C@H](O)C(C)=C[C@@H](C(=O)O3)[C@]45O)O2)O[C@H](/C(C)=C/C(C)C)[C@H]1C` [Moxidectin]: the CC50 in the data set with GH3-TRE-Luc cell line (Tox21_110001=Tox21_113093) was determined as 4.45 µM. In “in vitro”, this molecule displayed a CC50 at 24 h of 5.14 µM.

For `Cc1ccc(-c2cc(C(F)(F)F)nn2-c2ccc(S(N)(=O)=O)cc2)cc1` [Celecoxib], the CC50 in the data set on GH3-TRE-Luc cell line (Tox21_110001=Tox21_111135) was 21.2 µM; in the data set on GH3-TRE-Luc cell line (Tox21_110001=Tox21_201964), 46.6 µM; in the data set with GH3-TRE-Luc cell line (Tox21_110001=Tox21_300599), 62.4 µM.

As to `Nc1ccccc1N` [1,2-Phenylenediamine], the CC50 in the data set with GH3-TRE-Luc cell line (Tox21_110001=Tox21_400014) amounted to 73.8 µM.

Regarding `O=C1CN(/N=C/c2ccc(-c3ccc([N+](=O)[O-])cc3)o2)C(O)=N1` [Dantrolene sodium], the CC50 in the data set with GH3-TRE-Luc cell line (Tox21_110001=Tox21_112013) was determined as 11.2 µM; in the data set with GH3-TRE-Luc cell line (Tox21_110001=Tox21_301997), 48.2 µM.

In the case of `CCc1nn(CCCN2CCN(c3cccc(Cl)c3)CC2)c(=O)n1CCOc1ccccc1` [Nefazodone hydrochloride], the CC50 with GH3-TRE-Luc cell line (Tox21_110001=Tox21_111735) turned out to be 9.43 µM; with GH3-TRE-Luc cell line (Tox21_110001=Tox21_113574) it was 23.6 µM.

For `C[C@]12CC[C@@H]3c4ccc(O)cc4C[C@@H](CCCCCCCCC[S+]([O-])CCCC(F)(F)C(F)(F)F)[C@H]3[C@@H]1CC[C@@H]2O` (some centres unmarked) [Fulvestrant], the CC50 in the data set on GH3-TRE-Luc cell line (Tox21_110001=Tox21_110939) was determined as 0.00438 µM; in the data set on GH3-TRE-Luc cell line (Tox21_110001=Tox21_202604), 0.00683 µM; in the data set with GH3-TRE-Luc cell line (Tox21_110001=Tox21_303656) it was 2.26 µM.

As to `COC(=O)Nc1nc2ccccc2[nH]1` [Carbendazim], in the data set on GH3-TRE-Luc cell line (Tox21_110001=Tox21_300478), the CC50 came out at 11.4 µM.

With `C=C(CC)C(=O)c1ccc(OCC(=O)O)c(Cl)c1Cl` [Ethacrynic acid], the CC50 in the data set on GH3-TRE-Luc cell line (Tox21_110001=Tox21_110335) is 27 µM; in the data set with GH3-TRE-Luc cell line (Tox21_110001=Tox21_201102), 65.9 µM.

For the molecule `CC(C)NCC(O)COc1cccc2ccccc12` (centres unmarked) [Propranolol hydrochloride], the CC50 in the data set on GH3-TRE-Luc cell line (Tox21_110001=Tox21_201886) turned out to be 73 µM; in the data set on GH3-TRE-Luc cell line (Tox21_110001=Tox21_302905), 30.5 µM.

Turning to `[H]/N=C(\N/C(=N/[H])NCCCCCCNC(=N)NC(=N)Nc1ccc(Cl)cc1)Nc1ccc(Cl)cc1` [Chlorhexidine diacetate], the CC50 in the data set on GH3-TRE-Luc cell line (Tox21_110001=Tox21_302363) was 5.83 µM.

With `CN(C)CCOc1ccccc1Cc1ccccc1` [Phentoloxamine PAS], in the data set on GH3-TRE-Luc cell line (Tox21_110001=Tox21_113232), the CC50 worked out at 25.5 µM.

Turning to `Oc1cccc2cccnc12` [8-Hydroxyquinoline], the CC50 in the data set with GH3-TRE-Luc cell line (Tox21_110001=Tox21_113083) was determined as 3 µM; in the data set on GH3-TRE-Luc cell line (Tox21_110001=Tox21_202986), 3.28 µM; in the data set with GH3-TRE-Luc cell line (Tox21_110001=Tox21_400006), 3.8 µM.

As to `Cc1oncc1C(=O)Nc1ccc(C(F)(F)F)cc1` [Leflunomide], the CC50 was 9.39 µM in the data set with GH3-TRE-Luc cell line (Tox21_110001=Tox21_110182) and > 90 µM in the data set with GH3-TRE-Luc cell line (Tox21_110001=Tox21_301873).

Take `Cn1c(=O)c2c(ncn2C)n(C)c1=O` [Caffeine]: the CC50 with GH3-TRE-Luc cell line (Tox21_110001=Tox21_201685) stood at 41.2 µM.

As to `Nc1c(S(=O)(=O)O)cc(Br)c2c1C(=O)c1ccccc1C2=O` [1-Amino-4-bromo-9,10-dioxo-9,10-dihydroanthracene-2-sulfonic] [1-Amino-4-bromo-9,10-dioxo-9,10-dihydroanthracene-2-sulfonic acid], the CC50 with GH3-TRE-Luc cell line (Tox21_110001=Tox21_301752) was determined as 60.1 µM.

Consider `Oc1c(Cl)cc(Cl)cc1Sc1cc(Cl)cc(Cl)c1O` [Sodium bithionolate], for which the CC50 with GH3-TRE-Luc cell line (Tox21_110001=Tox21_202791) came out at 7.44 µM.

In the case of `Nc1ccc(Nc2ccccc2)cc1` [N-Phenyl-1,4-benzenediamine hydrochloride], the CC50 with GH3-TRE-Luc cell line (Tox21_110001=Tox21_200117) worked out at 57.3 µM.

The values above are taken from paper PMC6792352, “Limited Chemical Structural Diversity Found to Modulate Thyroid Hormone Receptor in the Tox21 Chemical Library” (Environmental Health Perspectives, 2019).
